The numbers were not newly measured in patent publication US12268783B2, “Platform drug delivery system utilizing crystal engineering and theanine dissolution” (THEAPRIN PHARMACEUTICALS, INC., priority 2015, dated 2025), which cites them from elsewhere.

For this data set, the system named is Chironex fleckeri venom. Conditions: mice following venom injection.

As for zinc gluconate, the survival time entry is given as “prolonged survival time”.
